Source: US8754106B2, “Macrocyclic inhibitors of hepatitis C virus” (Tibotec Pharmaceuticals Ltd., priority 2005, dated 2014)

Tests used:
[1] = Oral pharmacokinetics of Compound nr. 47 in rat with ritonavir boosting; format: in vivo, Sprague-Dawley rats; conditions: single oral 10 mg/kg Compound nr. 47 in 50% PEG400/water, boosted with 10 mg/kg ritonavir about 30 minutes before, plasma
Experimental: Oral pharmacokinetics of Compound nr. 47 in male and female Sprague-Dawley rats after a single dose at 10 mg/kg, using a formulation in 50% PEG400/water and the influence of “boosting” with 10 mg/kg ritonavir were investigated.
Four male and four female Sprague-Dawley (SD)-rats (approx. body weight 200-250 g) were randomly divided into 2 groups of 2 males and females each (boosted and non-boosted) based on body weight. […] The animals were fasted shortly before the trial. Drinking water remained available ad libitum.
Rats from the non-boosted group received a single oral 10 mg/kg dose of Compound nr. 47, formulated as a 3 mg/ml 50% PEG400/water at pH 8. Rats from the boosted group received a single oral dose of ritonavir, about 30 minutes before single oral dosing with 10 mg/kg of Compound nr. 47. The drug formulations were administered by oral gavage.
From each rat, a 0.5 ml blood sample was collected at 0.5 h, 1 h, 2 h, 4 h and 8 h after dosing. Plasma concentrations were determined using HPLC-MS. Results are shown in the table 2 below, expressed as fold change in pharmacokinetic parameter of the boosted group as compared to the non-boosted group.

[2] = test system: HCV replicons (Huh-Luc cells, NS3-NS5B regions of HCV type Ib); experiment: Replicon assay (Huh-7 luc/neo cells, luciferase readout); format: cell-based; conditions: three days incubation, luciferase activity
From the text: The compounds of formula (I) were examined for activity in the inhibition of HCV RNA replication in a cellular assay. […] The cellular assay was based on a bicistronic expression construct, as described by Lohmann et al. (1999) Science vol. 285 pp. 110-113 with modifications described by Krieger et al. (2001) Journal of Virology 75: 4614-4624, in a multi-target screening strategy. In essence, the method was as follows.
The assay utilized the stably transfected cell line Huh-7 luc/neo (hereafter referred to as Huh-Luc). This cell line harbors an RNA encoding a bicistronic expression construct comprising the wild type NS3-NS5B regions of HCV type Ib translated from an Internal Ribosome Entry Site (IRES) from encephalomyocarditis virus (EMCV), preceded by a reporter portion (FfL-luciferase), and a selectable marker portion (neo^R, neomycine phosphotransferase). The construct is bordered by 5′ and 3′ NTRs (non-translated regions) from HCV type Ib. Continued culture of the replicon cells in the presence of G418 (neo^R) is dependent on the replication of the HCV RNA. The stably transfected replicon cells that express HCV RNA, which replicates autonomously and to high levels, encoding inter alia luciferase, are used for screening the antiviral compounds.
The replicon cells were plated in 384 well plates in the presence of the test and control compounds which were added in various concentrations. Following an incubation of three days, HCV replication was measured by assaying luciferase activity (using standard luciferase assay substrates and reagents and a Perkin Elmer ViewLux™ ultraHTS microplate imager). Replicon cells in the control cultures have high luciferase expression in the absence of any inhibitor. The inhibitory activity of the compound on luciferase activity was monitored on the Huh-Luc cells, enabling a dose-response curve for each test compound.

[3] = target: HCV NS3/4A protease (Hepatitis C virus genotype 1a (isolate H77) (HCV), UniProt P27958); experiment: Inhibition assay (enzymatic assay), depsipeptide substrate hydrolysis; format: biochemical; conditions: full-length NS3 protease 1 nM, 25 μM NS4A cofactor, 0.5 μM substrate, competitive inhibition model
Chain of HCV NS3/4A protease (P27958 1027-1657): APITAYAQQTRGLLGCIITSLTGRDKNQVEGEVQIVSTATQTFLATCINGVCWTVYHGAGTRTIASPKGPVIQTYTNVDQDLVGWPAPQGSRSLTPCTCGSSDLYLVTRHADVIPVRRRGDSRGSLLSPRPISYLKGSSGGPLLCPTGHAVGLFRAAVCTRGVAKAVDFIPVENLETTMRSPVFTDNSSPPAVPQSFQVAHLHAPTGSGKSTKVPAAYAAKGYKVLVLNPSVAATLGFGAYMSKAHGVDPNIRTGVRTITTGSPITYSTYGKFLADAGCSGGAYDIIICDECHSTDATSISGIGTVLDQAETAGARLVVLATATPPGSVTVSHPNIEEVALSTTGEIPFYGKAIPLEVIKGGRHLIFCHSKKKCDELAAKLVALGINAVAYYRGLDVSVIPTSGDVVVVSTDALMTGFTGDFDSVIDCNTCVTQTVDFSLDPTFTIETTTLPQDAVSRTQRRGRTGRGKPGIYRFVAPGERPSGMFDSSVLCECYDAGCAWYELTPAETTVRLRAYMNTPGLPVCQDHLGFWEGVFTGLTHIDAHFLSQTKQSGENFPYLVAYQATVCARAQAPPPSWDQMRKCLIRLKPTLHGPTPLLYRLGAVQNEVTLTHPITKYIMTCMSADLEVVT
Experimental: [Landro, 1997 #Biochem 36 9340-9348]. […] The solutions were stored at −20° C. between measurements.
[Liu, 1999 Analytical Biochemistry 267 331-335].

Compound	Cmax, fold change of the boosted group as compared to the non-boosted group [1]	EC50 ([2]; Hepatitis C virus, Huh-7, 72 h)	Ki [3]	EC50 [2]
COc1ccc2c(O[C@@H]3C[C@H]4C(=O)N[C@]5(C(=O)NS(=O)(=O)C6CC6)C[C@H]5/C=C\CCCCN(C)C(=O)[C@@H]4C3)cc(-c3nc(C(C)C)cs3)nc2c1C [Compound 47, N-[17-[2-(4-isopropylthiazole-2-yl)-7-methoxy-8-methylquinolin-4-yloxy]-13-methyl-2,14-dioxo-3,13-diazatricyclo[13.3.0.0^4,6]octadec-7-ene-4-carbonyl](cyclopropyl)sulfonamide]	2.2 fold	–	–	–
CCc1c(OC)ccc2c(O[C@@H]3C[C@H]4C(=O)N[C@]5(C(=O)O)C[C@H]5/C=C\CCCCN(C)C(=O)[C@@H]4C3)cc(-c3nc(C(C)C)cs3)nc12 [Compound 71]	–	10 µM	–	–
COc1ccc2c(O[C@H]3C[C@H]4C(=O)NCCCCC/C=C\[C@@H]5C[C@@]5(C(=O)O)NC(=O)[C@@H]4C3)cc(-c3nc(C(C)C)cs3)nc2c1C [Compound 81]	–	10 µM	1000 nM	–
N-[[18-[2-[4-(isopropyl)thiazol-2-yl]-7-methoxy-8-methylquinolin-4-yloxy]-2,15-dioxo-3,14,16-triazatricyclo[14.3.0.0^4,6]nonadec-7-en-4-yl]carbonyl]-(cyclopropyl)sulfonamide [Compound 91]	–	–	0.05 nM	0.00854 µM
